Measurements taken from PubChem BioAssay (NCI).
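Compound exposure: 48 hours, 5 concentrations, 96-well plates. TGI marks complete inhibition of growth.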

Columns and labels:
Assay in all cases: NCI anticancer screen, dose series, 48 h
[1] = tested on: KM12 colon
[2] = tested on: ACHN renal
[3] = tested on: SR leukemia
[4] = tested on: SF-295 CNS
[5] = tested on: U251 CNS
[6] = tested on: NCI-H460 lung
[7] = tested on: NCI-H23 lung
[8] = tested on: HOP-62 NSCLC
[9] = tested on: M14 melanoma
[10] = tested on: IGROV1 ovarian
[11] = tested on: HCT-15 colon
[12] = tested on: T-47D breast
[13] = tested on: MDA-MB-231 breast
[14] = tested on: 786-0 renal
[15] = tested on: SK-MEL-28 melanoma
[16] = tested on: BT-549 breast
[17] = tested on: NCI/ADR-RES ovarian
[18] = tested on: DU-145 prostate
[19] = tested on: SW-620 colon
[20] = tested on: CAKI-1 renal
[21] = tested on: SK-MEL-5 melanoma
[22] = tested on: HS 578T breast
[23] = tested on: OVCAR-4 ovarian
[24] = tested on: OVCAR-3 ovarian
[25] = tested on: K-562 leukemia
[26] = tested on: UACC-257 melanoma
[27] = tested on: NCI-H226 lung
[28] = tested on: MALME-3M melanoma
[29] = tested on: HCC-2998 colon
[30] = tested on: SF-268 CNS
[31] = tested on: CCRF-CEM leukemia
[32] = tested on: A498 renal
[33] = tested on: OVCAR-8 ovarian
[34] = tested on: SK-MEL-2 melanoma
[35] = tested on: TK-10 renal
[36] = tested on: MDA-MB-435
[37] = tested on: RPMI-8226 leukemia
[38] = tested on: HOP-92 NSCLC
[39] = tested on: MOLT-4 leukemia
[40] = tested on: PC-3 prostate
[41] = tested on: SK-OV-3 ovarian
[42] = tested on: HCT-116 colon
[43] = tested on: HL-60(TB) leukemia
[44] = tested on: EKVX NSCLC
[45] = tested on: SNB-75 CNS
[46] = tested on: MDA-N
[47] = tested on: UACC-62 melanoma
[48] = tested on: A549 NSCLC
[49] = tested on: OVCAR-5 ovarian
[50] = tested on: RXF 393 renal
[51] = tested on: SN12C renal
[52] = tested on: COLO 205 colon
[53] = tested on: LOX IMVI melanoma
[54] = tested on: UO-31 renal
[55] = tested on: HT29 colon
[56] = tested on: MCF7 breast
[57] = tested on: NCI-H522 lung
[58] = tested on: SNB-19 CNS
[59] = tested on: SF-539 CNS

## CC(C)=CC(=O)C[C@H]1C(=O)O[C@@H]2C[C@H]3C(C)=CC(=O)[C@@H](O)[C@]3(C)[C@H]3[C@@]4(O)OC[C@]32[C@@H]1[C@@H](C)[C@H]4O
[1]
  TGI: 12.8 µM
[2]
  TGI: 0.834 µM
[3]
  TGI: > 100 µM
[4]
  TGI: 0.152 µM
[5]
  TGI: 0.137 µM
[6]
  TGI: 0.743 µM
[7]
  TGI: 0.042 µM
[8]
  TGI: 1.8 µM
[9]
  TGI: 0.115 µM
[10]
  TGI: 0.941 µM
[11]
  TGI: 0.907 µM
[12]
  TGI: 0.144 µM
[13]
  TGI: 0.381 µM
[14]
  TGI: 0.838 µM
[15]
  TGI: 0.172 µM
[16]
  TGI: 0.205 µM
[17]
  TGI: 11 µM
[18]
  TGI: 0.12 µM
[19]
  TGI: 6.26 µM
[20]
  TGI: > 50.2 µM
[21]
  TGI: 0.0612 µM
[22]
  TGI: 0.258 µM
[23]
  TGI: 1.05 µM
[24]
  TGI: 0.166 µM
[25]
  TGI: 1.3 µM
[26]
  TGI: 0.608 µM
[27]
  TGI: < 0.0156 µM
[28]
  TGI: 0.0619 µM
[29]
  TGI: 0.368 µM
[30]
  TGI: 0.21 µM
[31]
  TGI: 0.0918 µM
[32]
  TGI: 1.15 µM
[33]
  TGI: 0.283 µM
[34]
  TGI: 0.274 µM
[35]
  TGI: 0.512 µM
[36]
  TGI: 0.305 µM
[37]
  TGI: 0.0447 µM
[38]
  TGI: 0.328 µM
[39]
  TGI: > 100 µM
[40]
  TGI: 0.241 µM
[41]
  TGI: 4.98 µM
[42]
  TGI: 0.114 µM
[43]
  TGI: > 100 µM
[44]
  TGI: 4.25 µM
[45]
  TGI: 0.103 µM
[46]
  TGI: 0.329 µM
[47]
  TGI: 0.443 µM

## COc1cc(OC)cc(-c2nc3cc(F)ccc3s2)c1
[48]
  TGI: > 100 µM
[1]
  TGI: > 100 µM
[49]
  TGI: > 100 µM
[50]
  TGI: 36.6 µM
[2]
  TGI: 29.8 µM
[51]
  TGI: > 100 µM
[52]
  TGI: > 100 µM
[4]
  TGI: 23.5 µM
[5]
  TGI: 33.9 µM
[6]
  TGI: > 100 µM
[7]
  TGI: 28.4 µM
[9]
  TGI: > 100 µM
[10]
  TGI: 43.6 µM
[53]
  TGI: > 100 µM
[54]
  TGI: > 100 µM
[55]
  TGI: > 100 µM
[56]
  TGI: > 100 µM
[11]
  TGI: > 100 µM
[12]
  TGI: > 100 µM
[13]
  TGI: 40.3 µM
[14]
  TGI: 23.5 µM
[16]
  TGI: 24.7 µM
[17]
  TGI: > 100 µM
[18]
  TGI: > 100 µM
[19]
  TGI: > 100 µM
[20]
  TGI: > 100 µM
[21]
  TGI: > 100 µM
[23]
  TGI: > 100 µM
[24]
  TGI: 86.3 µM
[26]
  TGI: > 100 µM
[27]
  TGI: 37.8 µM
[28]
  TGI: > 100 µM
[29]
  TGI: 0.0449 µM
[30]
  TGI: 32 µM
[57]
  TGI: 45.5 µM
[31]
  TGI: > 100 µM
[32]
  TGI: 62.9 µM
[33]
  TGI: 97.8 µM
[34]
  TGI: 62.5 µM
[35]
  TGI: 33.2 µM
[36]
  TGI: > 100 µM
[37]
  TGI: > 100 µM
[40]
  TGI: > 100 µM
[41]
  TGI: 31.4 µM
[42]
  TGI: 38.8 µM
[58]
  TGI: 49.2 µM
[44]
  TGI: 43.5 µM
[46]
  TGI: > 100 µM
[59]
  TGI: 31.3 µM
[47]
  TGI: 41.7 µM

## Cc1[nH]n(C2=NCCN2)c(=O)c1Cc1ccccc1
[48]
  TGI: > 100 µM
[1]
  TGI: > 100 µM
[49]
  TGI: > 100 µM
[50]
  TGI: > 100 µM
[2]
  TGI: > 100 µM
[3]
  TGI: > 100 µM
[52]
  TGI: > 100 µM
[4]
  TGI: > 100 µM
[5]
  TGI: > 100 µM
[6]
  TGI: > 100 µM
[7]
  TGI: > 100 µM
[8]
  TGI: > 100 µM
[9]
  TGI: > 100 µM
[10]
  TGI: > 100 µM
[53]
  TGI: > 100 µM
[54]
  TGI: > 100 µM
[55]
  TGI: > 100 µM
[56]
  TGI: > 100 µM
[11]
  TGI: > 100 µM
[12]
  TGI: > 100 µM
[13]
  TGI: > 100 µM
[14]
  TGI: > 100 µM
[16]
  TGI: > 100 µM
[17]
  TGI: > 100 µM
[19]
  TGI: > 100 µM
[20]
  TGI: > 100 µM
[21]
  TGI: > 100 µM
[22]
  TGI: > 100 µM
[23]
  TGI: > 100 µM
[24]
  TGI: > 100 µM
[25]
  TGI: > 100 µM
[26]
  TGI: > 100 µM
[27]
  TGI: > 100 µM
[28]
  TGI: > 100 µM
[30]
  TGI: > 100 µM
[57]
  TGI: > 100 µM
[31]
  TGI: > 100 µM
[32]
  TGI: > 100 µM
[33]
  TGI: > 100 µM
[34]
  TGI: > 100 µM
[35]
  TGI: > 100 µM
[36]
  TGI: > 100 µM
[37]
  TGI: > 100 µM
[38]
  TGI: > 100 µM
[39]
  TGI: > 100 µM
[40]
  TGI: > 100 µM
[41]
  TGI: > 100 µM
[42]
  TGI: > 100 µM
[58]
  TGI: > 100 µM
[43]
  TGI: > 100 µM
[44]
  TGI: > 100 µM
[46]
  TGI: > 100 µM
[59]
  TGI: > 100 µM
[47]
  TGI: > 100 µM

## CO[C@H]1C=C[C@@]23c4cc5c(cc4CO[C@]2(O)CN(C)[C@H]3C1)OCO5
[48]
  TGI: > 100 µM
[1]
  TGI: > 100 µM
[49]
  TGI: > 100 µM
[2]
  TGI: > 100 µM
[51]
  TGI: > 100 µM
[52]
  TGI: > 100 µM
[4]
  TGI: > 100 µM
[5]
  TGI: > 100 µM
[6]
  TGI: > 100 µM
[7]
  TGI: > 100 µM
[9]
  TGI: > 100 µM
[10]
  TGI: > 100 µM
[53]
  TGI: > 100 µM
[54]
  TGI: > 100 µM
[55]
  TGI: > 100 µM
[56]
  TGI: > 100 µM
[11]
  TGI: > 100 µM
[12]
  TGI: > 100 µM
[13]
  TGI: > 100 µM
[14]
  TGI: > 100 µM
[15]
  TGI: > 100 µM
[16]
  TGI: > 100 µM
[17]
  TGI: > 100 µM
[18]
  TGI: > 100 µM
[19]
  TGI: > 100 µM
[20]
  TGI: > 100 µM
[21]
  TGI: > 100 µM
[22]
  TGI: > 100 µM
[23]
  TGI: > 100 µM
[24]
  TGI: > 100 µM
[25]
  TGI: > 100 µM
[26]
  TGI: > 100 µM
[27]
  TGI: > 100 µM
[28]
  TGI: > 100 µM
[29]
  TGI: > 100 µM
[30]
  TGI: > 100 µM
[57]
  TGI: > 100 µM
[31]
  TGI: > 100 µM
[32]
  TGI: > 100 µM
[33]
  TGI: > 100 µM
[34]
  TGI: > 100 µM
[35]
  TGI: > 100 µM
[36]
  TGI: > 100 µM
[37]
  TGI: > 100 µM
[38]
  TGI: > 100 µM
[39]
  TGI: > 100 µM
[40]
  TGI: > 100 µM
[41]
  TGI: > 100 µM
[42]
  TGI: > 100 µM
[58]
  TGI: > 100 µM
[43]
  TGI: > 100 µM
[44]
  TGI: > 100 µM
[45]
  TGI: > 100 µM
[46]
  TGI: > 100 µM
[59]
  TGI: > 100 µM
[47]
  TGI: > 100 µM
